Results published in ChEMBL document CHEMBL4673346, “Discovery of a benzimidazole series as the first highly potent and selective ACSL1 inhibitors” (Bioorg Med Chem Lett, 2021).

What was measured:
[1] = target: T1, Long-chain-fatty-acid--CoA ligase 1 (Mus musculus, UniProt P41216); assay: Inhibition of recombinant mouse ACSL1 assessed as reduction in […] prodution incubated for 90 mins in presence of Coenzyme A, ATP and MgCl2 by MALDI-TOF MS analysis
T1 sequence (P41216 whole entry): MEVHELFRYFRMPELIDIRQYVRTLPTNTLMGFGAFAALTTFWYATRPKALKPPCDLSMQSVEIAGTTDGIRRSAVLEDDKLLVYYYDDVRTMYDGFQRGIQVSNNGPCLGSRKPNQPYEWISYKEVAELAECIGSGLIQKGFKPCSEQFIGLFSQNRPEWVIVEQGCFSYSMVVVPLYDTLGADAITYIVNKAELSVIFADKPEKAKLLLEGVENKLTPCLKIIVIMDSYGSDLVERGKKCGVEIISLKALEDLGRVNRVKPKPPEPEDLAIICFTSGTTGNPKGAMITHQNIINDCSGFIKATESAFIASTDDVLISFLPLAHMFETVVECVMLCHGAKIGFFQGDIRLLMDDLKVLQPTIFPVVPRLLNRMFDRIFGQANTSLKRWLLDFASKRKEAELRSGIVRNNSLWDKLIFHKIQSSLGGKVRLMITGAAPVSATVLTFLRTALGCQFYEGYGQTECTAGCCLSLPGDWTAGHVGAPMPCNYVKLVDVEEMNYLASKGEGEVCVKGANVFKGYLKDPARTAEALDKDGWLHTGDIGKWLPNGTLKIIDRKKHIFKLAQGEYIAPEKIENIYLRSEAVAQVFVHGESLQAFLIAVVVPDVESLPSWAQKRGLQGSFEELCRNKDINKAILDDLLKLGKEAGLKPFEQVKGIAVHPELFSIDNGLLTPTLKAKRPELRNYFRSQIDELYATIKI

[2] = target: T2, Long-chain-fatty-acid--CoA ligase 1 (Homo sapiens, UniProt P33121); assay: Inhibition of recombinant human ACSL1 assessed as reduction in […] prodution incubated for 90 mins in presence of Coenzyme A, ATP and MgCl2 by MALDI-TOF MS analysis
T2 sequence (P33121 whole entry): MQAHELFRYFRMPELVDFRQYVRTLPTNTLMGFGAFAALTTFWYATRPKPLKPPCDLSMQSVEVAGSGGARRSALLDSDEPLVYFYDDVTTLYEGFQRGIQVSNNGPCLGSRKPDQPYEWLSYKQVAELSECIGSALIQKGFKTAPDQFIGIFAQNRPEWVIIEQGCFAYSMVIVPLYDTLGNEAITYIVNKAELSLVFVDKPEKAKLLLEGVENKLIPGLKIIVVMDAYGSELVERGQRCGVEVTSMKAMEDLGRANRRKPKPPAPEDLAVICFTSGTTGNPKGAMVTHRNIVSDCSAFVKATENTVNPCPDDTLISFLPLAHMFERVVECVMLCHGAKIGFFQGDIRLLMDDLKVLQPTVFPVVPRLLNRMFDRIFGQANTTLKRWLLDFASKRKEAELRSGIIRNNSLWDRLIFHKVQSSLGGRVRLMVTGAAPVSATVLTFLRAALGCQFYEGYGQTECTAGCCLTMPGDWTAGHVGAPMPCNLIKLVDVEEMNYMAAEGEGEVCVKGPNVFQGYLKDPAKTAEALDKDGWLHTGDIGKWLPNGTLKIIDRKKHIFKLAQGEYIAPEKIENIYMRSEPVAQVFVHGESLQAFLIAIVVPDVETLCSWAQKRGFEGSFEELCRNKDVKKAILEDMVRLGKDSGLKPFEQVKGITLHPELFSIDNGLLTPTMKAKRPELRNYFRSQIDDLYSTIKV

[3] = target: T2, Long-chain-fatty-acid--CoA ligase 1; assay: Inhibition of ACSL1 (unknown origin) assessed as reduction in […] prodution incubated for 90 mins in presence of Coenzyme A, ATP and MgCl2 by MALDI-TOF MS analysis
[4] = target: T3, Long-chain-fatty-acid--CoA ligase 6 (Homo sapiens, UniProt Q9UKU0); assay: Inhibition of recombinant human ACSL6 assessed as reduction in […] prodution incubated for 60 mins in presence of Coenzyme A, ATP and MgCl2 by MALDI-TOF MS analysis
T3 sequence (Q9UKU0 whole entry): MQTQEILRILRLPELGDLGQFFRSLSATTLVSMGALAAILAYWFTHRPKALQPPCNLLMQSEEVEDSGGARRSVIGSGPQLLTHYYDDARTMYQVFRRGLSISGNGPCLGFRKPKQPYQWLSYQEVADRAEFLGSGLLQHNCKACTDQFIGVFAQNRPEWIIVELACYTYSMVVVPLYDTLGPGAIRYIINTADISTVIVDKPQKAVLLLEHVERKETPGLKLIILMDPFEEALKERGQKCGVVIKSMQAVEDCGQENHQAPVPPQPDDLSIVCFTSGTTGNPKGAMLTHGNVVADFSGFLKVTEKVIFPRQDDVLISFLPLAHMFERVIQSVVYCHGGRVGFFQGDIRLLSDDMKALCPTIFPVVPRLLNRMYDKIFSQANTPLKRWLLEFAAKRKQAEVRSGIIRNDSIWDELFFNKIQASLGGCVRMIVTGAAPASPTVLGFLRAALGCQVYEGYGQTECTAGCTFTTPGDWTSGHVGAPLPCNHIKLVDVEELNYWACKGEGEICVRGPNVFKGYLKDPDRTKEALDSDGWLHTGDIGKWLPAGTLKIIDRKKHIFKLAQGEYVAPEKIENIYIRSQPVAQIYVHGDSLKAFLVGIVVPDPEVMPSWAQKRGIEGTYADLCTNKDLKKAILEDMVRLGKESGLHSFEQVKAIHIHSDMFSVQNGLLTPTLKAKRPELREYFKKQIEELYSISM

[5] = target: Long-chain-fatty-acid--CoA ligase 4 (Homo sapiens, UniProt O60488); assay: Inhibition of recombinant human ACSL4 assessed as reduction in […] prodution incubated for 120 mins in presence of Coenzyme A, ATP and MgCl2 by MALDI-TOF MS analysis
[6] = target: T4, Long-chain-fatty-acid--CoA ligase 5 (Homo sapiens, UniProt Q9ULC5); assay: Inhibition of recombinant human ACSL5 assessed as reduction in […] prodution incubated for 90 mins in presence of Coenzyme A, ATP and MgCl2 by MALDI-TOF MS analysis
T4 sequence (Q9ULC5 whole entry): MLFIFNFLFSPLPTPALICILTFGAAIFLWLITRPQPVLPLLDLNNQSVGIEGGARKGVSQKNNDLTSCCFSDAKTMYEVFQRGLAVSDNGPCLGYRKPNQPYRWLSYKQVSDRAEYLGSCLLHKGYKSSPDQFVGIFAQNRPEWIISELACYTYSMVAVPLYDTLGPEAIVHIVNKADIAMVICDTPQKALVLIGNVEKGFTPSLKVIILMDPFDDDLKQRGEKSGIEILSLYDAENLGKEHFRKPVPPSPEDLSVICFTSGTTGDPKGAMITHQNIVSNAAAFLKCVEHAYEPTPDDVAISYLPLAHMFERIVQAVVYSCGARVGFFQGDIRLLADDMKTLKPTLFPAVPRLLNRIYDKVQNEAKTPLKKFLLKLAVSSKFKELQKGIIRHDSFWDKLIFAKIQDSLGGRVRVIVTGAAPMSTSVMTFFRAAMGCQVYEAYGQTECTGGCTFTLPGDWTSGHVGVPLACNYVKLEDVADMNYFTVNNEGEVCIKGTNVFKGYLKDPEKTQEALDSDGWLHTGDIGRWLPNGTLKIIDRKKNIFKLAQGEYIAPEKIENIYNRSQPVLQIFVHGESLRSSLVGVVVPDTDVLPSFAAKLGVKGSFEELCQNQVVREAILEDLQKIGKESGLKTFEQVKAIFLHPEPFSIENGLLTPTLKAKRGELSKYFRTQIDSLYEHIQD

[7] = target: Fatty acid CoA ligase Acsl3 (Homo sapiens, UniProt O95573); assay: Inhibition of recombinant human ACSL3 assessed as reduction in […] prodution incubated for 90 mins in presence of Coenzyme A, ATP and MgCl2 by MALDI-TOF MS analysis
Chain of Fatty acid CoA ligase Acsl3 (O95573 whole entry): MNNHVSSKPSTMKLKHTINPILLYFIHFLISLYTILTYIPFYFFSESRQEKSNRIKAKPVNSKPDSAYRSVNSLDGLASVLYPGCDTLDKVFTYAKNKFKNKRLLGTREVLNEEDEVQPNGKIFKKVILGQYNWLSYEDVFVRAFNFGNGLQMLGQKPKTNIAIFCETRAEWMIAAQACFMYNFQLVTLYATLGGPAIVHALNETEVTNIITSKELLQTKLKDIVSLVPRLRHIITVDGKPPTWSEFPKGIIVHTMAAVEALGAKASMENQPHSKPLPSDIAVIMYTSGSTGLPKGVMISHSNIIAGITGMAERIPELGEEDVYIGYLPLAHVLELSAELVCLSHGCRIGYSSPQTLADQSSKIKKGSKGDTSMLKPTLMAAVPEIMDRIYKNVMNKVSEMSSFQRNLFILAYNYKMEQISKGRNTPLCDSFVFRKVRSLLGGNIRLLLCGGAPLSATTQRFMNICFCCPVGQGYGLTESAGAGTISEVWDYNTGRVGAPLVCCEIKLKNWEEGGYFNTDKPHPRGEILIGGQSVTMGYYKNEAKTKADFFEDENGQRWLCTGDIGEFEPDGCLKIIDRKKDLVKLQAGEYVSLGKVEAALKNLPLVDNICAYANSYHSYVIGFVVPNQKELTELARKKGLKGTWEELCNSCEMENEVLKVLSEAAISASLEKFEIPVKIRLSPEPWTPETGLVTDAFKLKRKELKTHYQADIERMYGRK

Chain of Long-chain-fatty-acid--CoA ligase 4 (O60488 whole entry): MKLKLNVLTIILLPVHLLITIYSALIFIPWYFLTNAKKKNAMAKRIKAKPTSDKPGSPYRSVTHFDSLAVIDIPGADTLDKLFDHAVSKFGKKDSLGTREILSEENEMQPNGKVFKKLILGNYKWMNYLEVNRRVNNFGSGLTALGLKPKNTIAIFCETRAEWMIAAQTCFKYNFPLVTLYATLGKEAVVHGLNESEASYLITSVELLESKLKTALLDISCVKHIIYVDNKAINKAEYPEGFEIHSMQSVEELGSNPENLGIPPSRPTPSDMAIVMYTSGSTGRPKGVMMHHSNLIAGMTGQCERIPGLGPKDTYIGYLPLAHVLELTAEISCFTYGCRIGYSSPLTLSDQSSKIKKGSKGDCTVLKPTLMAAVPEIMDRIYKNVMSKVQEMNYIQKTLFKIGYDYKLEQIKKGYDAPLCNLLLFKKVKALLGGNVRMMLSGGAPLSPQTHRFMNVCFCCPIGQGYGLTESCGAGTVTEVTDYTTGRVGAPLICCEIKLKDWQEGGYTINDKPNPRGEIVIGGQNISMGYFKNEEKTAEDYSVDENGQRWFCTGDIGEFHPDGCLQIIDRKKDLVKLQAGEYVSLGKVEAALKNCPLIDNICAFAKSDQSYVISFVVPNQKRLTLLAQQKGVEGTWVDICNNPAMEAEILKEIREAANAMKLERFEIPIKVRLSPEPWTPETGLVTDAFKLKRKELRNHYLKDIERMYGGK

| Compound | IC50 [1] [nM] | IC50 [2] [nM] | other results |
| --- | --- | --- | --- |
| Cc1ccc(Cc2nc3cc(O[C@H]4CC[C@@H](C(=O)O)CC4)ccc3n2C)cc1 | 80 | 150 |  |
| O=C(O)C[C@H]1CC[C@@H](Oc2ccc3oc4ccccc4c(=O)c3c2)CC1 |  |  | IC50 [3]: 18000 nM |
| Cc1cccc(Cc2nc3cc(O[C@H]4CC[C@@H](C(=O)O)CC4)c(Cl)cc3n2C)c1 | 100 | 47 |  |
| Cc1cccc(Cc2nc3cc(O[C@H]4CC[C@@H](C(=O)O)CC4)ccc3n2C(C)C)c1 | > 200000 | > 200000 |  |
| Cc1cccc(C(=O)c2nc3cc(O[C@H]4CC[C@@H](C(=O)O)CC4)ccc3n2C)c1 |  | > 200000 |  |
| Cc1cccc(COc2nc3cc(O[C@H]4CC[C@@H](C(=O)O)CC4)ccc3n2C)c1 | 8100 | 17000 |  |
| Cc1cccc(Cc2nc3nc(O[C@H]4CC[C@@H](C(=O)O)CC4)ccc3n2C)c1 | 79 | 44 |  |
| Cc1cccc(Cc2nc3cc(O[C@H]4CC[C@@H](c5noc(=O)[nH]5)CC4)ccc3n2C)c1 | 100 | 47 |  |
| O=C(O)C[C@H]1CC[C@H](Oc2ccc3oc4ccccc4c(=O)c3c2)CC1 |  |  | IC50 [3]: > 200000 nM |
| Cn1c(Cc2ccc3c(c2)OCC3)nc2cc(O[C@H]3CC[C@@](F)(c4nnn[nH]4)CC3)ccc21 | 15 | 3 |  |
| O=C(O)[C@H]1CC[C@@H](Oc2ccc3c(c2)Cc2ccccc2O3)CC1 | 4000 | 4600 |  |
| Cc1cccc(Cc2c(C(N)=O)c3cc(O[C@H]4CC[C@@H](C(=O)O)CC4)ccc3n2C)c1 | 440 | 600 |  |
| Cn1c(Cc2cccnc2)nc2cc(O[C@H]3CC[C@@H](C(=O)O)CC3)ccc21 | > 200000 | 141000 |  |
| Cc1cccc(Cc2nc3cc(O[C@H]4CC[C@@](F)(c5nnn[nH]5)CC4)ccc3n2C)c1 | 13 | 13 |  |
| O=C(O)CCCCOc1ccc2oc3ccccc3c(=O)c2c1 |  |  | IC50 [4]: 93000 nM; IC50 [5]: > 200000 nM; IC50 [6]: > 200000 nM; IC50 [7]: > 200000 nM; IC50 [3]: 1700 nM |
| Cc1cccc(Cc2nc3cc(O[C@H]4CC[C@@H](C(N)=O)CC4)ccc3n2C)c1 | 190 | 950 |  |
| O=c1c2ccccc2oc2ccc(OC[C@H]3CC[C@H](C(=O)O)CC3)cc12 |  |  | IC50 [3]: > 200000 nM |
| Cn1c(Cc2ccc3c(c2)OCC3)nc2cc(O[C@H]3CC[C@@H](C(=O)O)CC3)ccc21 | 36 | 13 |  |
| Cc1ccccc1Cc1nc2cc(O[C@H]3CC[C@@H](C(=O)O)CC3)ccc2n1C | 5400 | 7800 |  |

| Compound | IC50 [1] [nM] | IC50 [2] [nM] | other results |
| --- | --- | --- | --- |
| Cc1cccc(Cn2nc3cc(O[C@H]4CC[C@@H](C(=O)O)CC4)ccc3c2C)c1 | 53 | 45 |  |
| O=C(O)[C@H]1CC[C@@H](Oc2ccc3oc(-c4ccccc4)nc3c2)CC1 | 59000 | 4400 |  |
| Cc1cccc(Cc2c(C#N)c3cc(O[C@H]4CC[C@@H](C(=O)O)CC4)ccc3n2C)c1 | 600 | 1900 |  |
| Cc1cccc(Cc2nc3cc(O[C@H]4CC[C@@H](C(=O)O)CC4)cc(Cl)c3n2C)c1 | 170 | 28 |  |
| O=c1c2ccccc2oc2ccc(O[C@H]3CC[C@H](C(=O)O)CC3)cc12 | 1400 | 240 | IC50 [3]: > 200000 nM |
| Cn1c(Cc2cccc(C(F)(F)F)c2)nc2cc(O[C@H]3CC[C@@H](C(=O)O)CC3)ccc21 | 86 | 190 |  |
| Cc1cccc(Cc2nc3cc(O[C@H]4CC[C@@H](C(=O)O)CC4)ncc3n2C)c1 | 46000 | 41000 |  |
| Cc1cccc(Cc2nc3cc(O[C@H]4CC[C@@H](C(=O)O)CC4)ccc3o2)c1 | 140 | 39 |  |
| Cc1cccc(Cc2nc3ccc(O[C@H]4CC[C@@H](C(=O)O)CC4)cc3n2C)c1 | > 200000 | > 200000 |  |
| Cc1cccc(Oc2nc3cc(O[C@H]4CC[C@@H](C(=O)O)CC4)ccc3n2C)c1 | 21000 | 78000 |  |
| Cc1cccc(Cc2nc3cc(O[C@H]4CC[C@@H](c5nnn[nH]5)CC4)ccc3n2C)c1 | 25 | 34 |  |
| Cn1c(Cc2cccc(C#N)c2)nc2cc(O[C@H]3CC[C@@H](C(=O)O)CC3)ccc21 | 22000 | 51000 |  |
| Cc1cccc(Cc2nc3c(Cl)c(O[C@H]4CC[C@@H](C(=O)O)CC4)ccc3n2C)c1 | 56000 | 61000 |  |
| Cc1cccc(Cc2cc3cc(O[C@H]4CC[C@@H](C(=O)O)CC4)ccc3n2C)c1 | 400 | 400 |  |
| O=C(O)CCCCCCOc1ccc2oc3ccccc3c(=O)c2c1 |  |  | IC50 [4]: 6200 nM; IC50 [5]: > 200000 nM; IC50 [6]: > 200000 nM; IC50 [7]: 114000 nM; IC50 [3]: 310 nM |
| O=c1c2ccccc2oc2ccc(O[C@H]3CC[C@@H](C(=O)O)CC3)cc12 |  |  | IC50 [4]: 70000 nM; IC50 [5]: > 200000 nM; IC50 [6]: > 200000 nM; IC50 [7]: 69000 nM; IC50 [3]: 240 nM |
| O=C(O)c1ccc(Oc2ccc3oc4ccccc4c(=O)c3c2)cc1 |  |  | IC50 [3]: > 200000 nM |
| O=c1c2ccccc2oc2ccc(OC[C@H]3CC[C@@H](C(=O)O)CC3)cc12 |  |  | IC50 [3]: > 200000 nM |
